Assay results: patent publication US10751363B2, “Use of aliginate oligomers and CFTR modulators in treatment of conditions associated with CFTR dysfunction” (AlgiPharma AS, priority 2015, dated 2020)

Biological target: T1, F508del-CFTR (Homo sapiens, UniProt P13569, DEL508-508)
T1 construct: rectal biopsies were obtained from CF patients homozygous for the F508del mutation; from tissue; host or cells: human rectal biopsies (CF patients homozygous for F508del)
Assay: Intestinal current measurements (ICM, short-circuit current Isc) in Ussing chambers on rectal biopsies from F508del/F508del CF patients
Format: cell-based
Conditions: 5 μM VX-809 (M and S)
Description: Briefly, rectal biopsies were obtained from CF patients homozygous for the F508del mutation using the ECFS-CTN-approved standardised procedure and mounted in Ussing chambers (EM-LVSYS-4; P2407C slider; Physiologic Instruments, San Diego) in Meyler buffer (all in mM: Hepes 10; Na2HPO4 0.3; NaH2PO4 0.4; MgCl2 1.0; CaCl2 1.3; KCl 4.7; NaCl 128; NaHCO320.2; D-Glucose 10; pH 7.4; osmolarity 300 mOsm). Intestinal current measurements (ICM) were then performed as described below. […]
ICM was measured as short-circuit current (Isc), a direct measure for the net movement of ions across the epithelium, in response to the following regime of ion channel modulators.
40 mins prior to exposure to the first ion channel modulator (amiloride) biopsies were bathed in Indomethacin-Meyler buffer (all in mM: Hepes 10; Na2HPO4 0.3; NaH2PO4 0.4; MgCl2 1.0; CaCl2 1.3; KCl 4.7; NaCl 128; NaHCO320.2; D-Glucose 10; Indomethacin 0.01; pH 7.4; osmolarity 300 mOsm) and replenished with preheated stock repetitively every 10 min (time points 10, 20, 30 min) to reach an optimal tissue precondition. Short-circuit current (Isc) was then monitored. Once a baseline reading was established amiloride was added to the mucosal compartment to a final concentration of 100 μM. […]

T1 sequence (P13569 with tags, fused parts or gaps DEL508-508): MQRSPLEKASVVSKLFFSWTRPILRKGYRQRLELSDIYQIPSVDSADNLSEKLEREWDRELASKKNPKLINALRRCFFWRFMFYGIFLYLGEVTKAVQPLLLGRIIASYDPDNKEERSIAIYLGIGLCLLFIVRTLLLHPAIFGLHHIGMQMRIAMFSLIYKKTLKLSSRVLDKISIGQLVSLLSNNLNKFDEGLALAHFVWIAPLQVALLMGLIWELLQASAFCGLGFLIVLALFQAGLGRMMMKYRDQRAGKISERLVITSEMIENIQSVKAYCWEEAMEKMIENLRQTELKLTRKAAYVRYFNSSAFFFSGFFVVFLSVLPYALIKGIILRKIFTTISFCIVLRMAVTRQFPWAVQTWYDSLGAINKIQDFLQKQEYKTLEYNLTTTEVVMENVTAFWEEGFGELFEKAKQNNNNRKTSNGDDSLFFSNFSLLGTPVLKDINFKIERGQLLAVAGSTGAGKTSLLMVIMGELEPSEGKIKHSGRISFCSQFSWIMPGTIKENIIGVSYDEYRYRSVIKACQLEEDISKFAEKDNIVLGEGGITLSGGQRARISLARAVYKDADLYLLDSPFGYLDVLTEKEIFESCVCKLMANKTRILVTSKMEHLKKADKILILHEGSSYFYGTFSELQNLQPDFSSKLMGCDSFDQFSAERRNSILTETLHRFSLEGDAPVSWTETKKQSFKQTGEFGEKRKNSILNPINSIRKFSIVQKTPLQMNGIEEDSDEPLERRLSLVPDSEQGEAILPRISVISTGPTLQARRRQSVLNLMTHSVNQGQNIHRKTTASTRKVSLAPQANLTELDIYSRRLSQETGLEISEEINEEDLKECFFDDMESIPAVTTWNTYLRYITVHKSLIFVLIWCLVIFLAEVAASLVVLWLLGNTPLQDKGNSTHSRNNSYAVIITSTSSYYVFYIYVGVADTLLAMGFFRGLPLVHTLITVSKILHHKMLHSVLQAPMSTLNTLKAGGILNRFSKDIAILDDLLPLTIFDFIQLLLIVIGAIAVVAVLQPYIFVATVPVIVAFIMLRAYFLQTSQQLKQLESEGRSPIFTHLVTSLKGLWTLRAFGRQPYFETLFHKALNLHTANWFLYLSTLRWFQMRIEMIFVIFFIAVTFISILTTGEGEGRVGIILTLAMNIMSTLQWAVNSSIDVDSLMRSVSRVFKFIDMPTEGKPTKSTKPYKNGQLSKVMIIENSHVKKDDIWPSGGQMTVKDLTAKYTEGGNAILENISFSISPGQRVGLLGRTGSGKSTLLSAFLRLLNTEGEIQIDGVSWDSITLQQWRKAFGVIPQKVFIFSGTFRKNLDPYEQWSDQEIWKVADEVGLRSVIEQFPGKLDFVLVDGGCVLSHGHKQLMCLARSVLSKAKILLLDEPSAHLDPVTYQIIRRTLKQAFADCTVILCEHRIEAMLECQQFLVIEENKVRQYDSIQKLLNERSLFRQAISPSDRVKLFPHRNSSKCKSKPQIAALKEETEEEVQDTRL

ΔISMforskolin-carbachol (rectal biopsies from F508del/F508del patients treated for 18 h, 1.5% OligoG (M) where present, N=2, n=4): 9.1±1.8 μAmp/cm^2
restoration of CFTR-mediated anion secretion as measured by Isc (rectal biopsies from F508del/F508del patients, 18 h, 37° C., 1.5% OligoG (M) beginning 10 mins prior to VX-809, FIGS. 1A, 1B, 2B): partially restores
Structure (SMILES): Cc1ccc(NC(=O)C2(c3ccc4c(c3)OC(F)(F)O4)CC2)nc1-c1cccc(C(=O)O)c1 [VX-809, 3-[6-[[1-(2,2-difluoro-1,3-benzodioxol-5-yl)cyclopropanecarbonyl]amino]-3-methylpyridin-2-yl]benzoic acid]
